Source: article PMC9024597, “The Biological Fate of a Novel Anticancer Drug Candidate TNBG-5602: Metabolic Profile, Interaction with CYP450, and Pharmacokinetics in Rats” (Molecules, 2022)

What was measured:
CYP2D6 = target: T1, CYP2D6 (Homo sapiens, UniProt P10635); experiment: IC50 assessment using recombinant human CYPs (probe dextromethorphan); type: in vitro ADME; settings: recombinant CYP 0.025 μM, dextromethorphan 0.05 mg mL^−1, 37 °C, 30 min, n = 3; read-out: IC50 against CYP2D6
T1 construct: purchased IPHASE
T1 sequence (P10635 whole entry): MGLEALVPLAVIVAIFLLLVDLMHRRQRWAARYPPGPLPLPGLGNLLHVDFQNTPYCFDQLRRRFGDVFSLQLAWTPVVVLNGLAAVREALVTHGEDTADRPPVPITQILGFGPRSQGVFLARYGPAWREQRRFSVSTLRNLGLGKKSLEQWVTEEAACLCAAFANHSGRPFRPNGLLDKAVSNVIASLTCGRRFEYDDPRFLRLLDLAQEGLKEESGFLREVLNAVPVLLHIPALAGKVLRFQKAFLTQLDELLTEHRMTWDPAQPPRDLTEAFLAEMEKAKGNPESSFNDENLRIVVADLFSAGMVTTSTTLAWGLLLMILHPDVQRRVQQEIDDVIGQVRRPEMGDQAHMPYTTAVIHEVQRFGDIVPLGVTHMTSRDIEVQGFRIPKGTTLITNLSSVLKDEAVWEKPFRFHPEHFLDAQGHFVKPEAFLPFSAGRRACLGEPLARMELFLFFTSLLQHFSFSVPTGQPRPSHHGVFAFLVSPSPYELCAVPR
Protocol: (§1) Figure 12 The inhibition curves for TNBG-5602 against cytochrome enzymes (mean ± SD, n = 3). TNBG-5602 (final concentrations of 0, 0.01, 0.1, 1.0, 10.0, and 100 μM) was incubated with recombinant cytochrome P450s (final concentration 0.025 μM) and the specific probe substates (final concentration 0.05 mg mL^−1) with NADPH to initiate the metabolic reaction. The incubations were carried out at 37 °C for 30 min with a total volume of 200 μL. The CYP isoforms tested were 2D6 (dextromethorphan), 2C9 (tolbutamide), and 3A4 (testosterone). […] The IC50 values were calculated using the GraphPad Prism statistical software (Version 8) by nonlinear regression analysis.
(§2) The LC-MS/MS instrument was the same as the system used to determine TNBG-5602. The mobile phase consisted of 0.1% formic acid, aqueous solution (Solvent A), and acetonitrile (Solvent B) at a flow rate of 0.3 mL min^−1. […]
(§3) For IC50 assessment, the inhibition curves were established by nonlinear regression analysis plotting the relative activity (y) versus the logarithm of the TNBG-5602 concentration (x). The inhibition curve and the half-maximal inhibitory concentration of TNBG-5602 against each CYP isoform were analyzed using the GraphPad Prism statistical software (version 8). […]

CYP2C9 = target: T2, CYP2C9 (Homo sapiens, UniProt P11712); experiment: IC50 assessment using recombinant human CYPs (probe tolbutamide); type: in vitro ADME; settings: recombinant CYP 0.025 μM, tolbutamide 0.05 mg mL^−1, 37 °C, 30 min, n = 3; read-out: IC50 against CYP2C9
T2 construct: purchased IPHASE
T2 sequence (P11712 whole entry): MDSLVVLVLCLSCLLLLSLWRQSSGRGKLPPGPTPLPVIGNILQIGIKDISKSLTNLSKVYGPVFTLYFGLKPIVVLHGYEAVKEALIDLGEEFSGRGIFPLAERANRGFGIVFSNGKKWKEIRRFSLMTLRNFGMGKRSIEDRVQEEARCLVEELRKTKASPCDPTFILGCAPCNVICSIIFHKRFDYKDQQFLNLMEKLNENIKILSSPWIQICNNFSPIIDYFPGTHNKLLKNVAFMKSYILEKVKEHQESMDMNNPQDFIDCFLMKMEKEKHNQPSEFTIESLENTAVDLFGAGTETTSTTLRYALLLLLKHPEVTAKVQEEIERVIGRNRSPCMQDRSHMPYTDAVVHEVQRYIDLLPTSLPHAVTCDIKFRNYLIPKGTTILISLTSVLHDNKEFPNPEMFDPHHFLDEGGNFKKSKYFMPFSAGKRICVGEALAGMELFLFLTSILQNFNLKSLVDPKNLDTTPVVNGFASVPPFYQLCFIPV
Protocol: as §1, §2, §3

CYP3A4 = target: T3, CYP3A4 (Homo sapiens, UniProt P08684); experiment: IC50 assessment using recombinant human CYPs (probe testosterone); type: in vitro ADME; settings: recombinant CYP 0.025 μM, testosterone 0.05 mg mL^−1, 37 °C, 30 min, n = 3; read-out: IC50 against CYP3A4
T3 construct: purchased IPHASE
T3 sequence (P08684 whole entry): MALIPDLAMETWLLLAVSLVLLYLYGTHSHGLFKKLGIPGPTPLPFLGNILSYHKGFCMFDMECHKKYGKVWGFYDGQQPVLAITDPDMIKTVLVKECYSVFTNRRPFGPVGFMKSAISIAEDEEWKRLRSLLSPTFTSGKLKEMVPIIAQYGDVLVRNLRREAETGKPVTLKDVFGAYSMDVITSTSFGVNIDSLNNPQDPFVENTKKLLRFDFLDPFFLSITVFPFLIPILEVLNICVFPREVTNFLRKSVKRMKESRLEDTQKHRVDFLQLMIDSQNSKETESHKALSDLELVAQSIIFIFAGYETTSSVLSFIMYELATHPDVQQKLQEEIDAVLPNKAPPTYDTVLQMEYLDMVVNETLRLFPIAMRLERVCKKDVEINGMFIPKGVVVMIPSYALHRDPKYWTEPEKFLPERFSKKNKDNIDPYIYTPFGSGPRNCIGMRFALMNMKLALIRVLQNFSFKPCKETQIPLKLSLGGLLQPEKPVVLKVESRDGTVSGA
Protocol: as §1, §2, §3

[1] = Stability of TNBG-5602 rat plasma samples on storage and freeze-thaw; type: in vitro ADME; settings: stored at −20 and −80 °C
[2] = system: five human cancer cell lines; parameters: method as in PMID 35541052; settings: cited from earlier work
liver cancer cells = system: liver cancer cells; parameters: method as in PMID 31446646; settings: cited from earlier work
cancer cells and tissues = system: cancer cells and tissues; parameters: method as in PMID 31446646; settings: oil red O staining; cited from earlier work

With `CN(C)CCN1CC2c3ccccc3CCN2c2nc3ccccc3nc21` (stereo not shown) [TNBG-5602] the IC50 (CYP2D6) was 2.52 µM, the IC50 (CYP2C9) was 9.63 µM and the IC50 (CYP3A4) was 18.7 µM. For the same molecule, the “time plasma samples were stable on storage” value [1] was “at least 90 days”, the “inhibitory activity against five human cancer cell lines” value [2] was “strong inhibitory activity” and the “inhibition of proliferation of liver cancer cells in vitro” value (liver cancer cells) was “effectively inhibited the proliferation”. The “lipid accumulation in cancer cells and tissues” value (cancer cells and tissues) was “selectively cause lipid accumulation”.
